Test results as given in the NIST ThermoML archive (doi:10.1016/j.fluid.2018.09.026).
“And” between values parts separate entries of the source, which are not always exact repeats. Identical values can stand only once.

Conditions: Liquid; for mass density: Vibrating tube method; for viscosity: Vibrating wire viscometry

OCCOCCO [diethylene glycol]
Conditions | mass density | viscosity
283.15 K, 100 kPa | 1123.1 kg/m3 | –
283.15 K, 640 kPa | 1123.3 kg/m3 | –
283.15 K, 1080 kPa | 1123.5 kg/m3 | –
283.15 K, 1590 kPa | 1123.7 kg/m3 | –
283.15 K, 2140 kPa | 1124 kg/m3 | –
283.15 K, 3050 kPa | 1124.3 kg/m3 | –
283.15 K, 5050 kPa | 1125.2 kg/m3 | –
283.15 K, 6930 kPa | 1126 kg/m3 | –
283.15 K, 9930 kPa | 1127.2 kg/m3 | –
283.15 K, 14810 kPa | 1129.3 kg/m3 | –
283.15 K, 19760 kPa | 1131.3 kg/m3 | –
283.15 K, 24610 kPa | 1133.3 kg/m3 | –
283.15 K, 29600 kPa | 1135.2 kg/m3 | –
283.15 K, 34500 kPa | 1137.1 kg/m3 | –
283.15 K, 39420 kPa | 1139 kg/m3 | –
283.15 K, 44300 kPa | 1140.8 kg/m3 | –
283.15 K, 49180 kPa | 1142.6 kg/m3 | –
283.15 K, 54060 kPa | 1144.4 kg/m3 | –
283.15 K, 59030 kPa | 1146.1 kg/m3 | –
283.15 K, 63810 kPa | 1147.8 kg/m3 | –
283.15 K, 68760 kPa | 1149.5 kg/m3 | –
293.15 K, 100 kPa | 1115.9 kg/m3 | –
293.15 K, 570 kPa | 1116.1 kg/m3 | –
293.15 K, 1080 kPa | 1116.3 kg/m3 | –
293.15 K, 1530 kPa | 1116.6 kg/m3 | –
293.15 K, 2110 kPa | 1116.8 kg/m3 | –
293.15 K, 3080 kPa | 1117.2 kg/m3 | –
293.15 K, 5040 kPa | 1118.1 kg/m3 | –
293.15 K, 6990 kPa | 1118.9 kg/m3 | –
293.15 K, 9940 kPa | 1120.2 kg/m3 | –
293.15 K, 14840 kPa | 1122.3 kg/m3 | –
293.15 K, 19740 kPa | 1124.3 kg/m3 | –
293.15 K, 24680 kPa | 1126.4 kg/m3 | –
293.15 K, 29600 kPa | 1128.4 kg/m3 | –
293.15 K, 34530 kPa | 1130.3 kg/m3 | –
293.15 K, 39360 kPa | 1132.2 kg/m3 | –
293.15 K, 44320 kPa | 1134.1 kg/m3 | –
293.15 K, 49120 kPa | 1136 kg/m3 | –
293.15 K, 54090 kPa | 1137.8 kg/m3 | –
293.15 K, 58990 kPa | 1139.6 kg/m3 | –
293.15 K, 63820 kPa | 1141.3 kg/m3 | –
293.15 K, 68750 kPa | 1143 kg/m3 | –
293.23 K, 180 kPa | – | 34.67 mPa·s [middle of 4 runs]
293.23 K, 1170 kPa | – | 34.84 mPa·s [middle of 4 runs]
293.23 K, 2100 kPa | – | 34.99 mPa·s [middle of 5 runs]
293.23 K, 2110 kPa | – | 35.15 mPa·s
293.23 K, 5060 kPa | – | 35.84 mPa·s and 36.03 mPa·s and 36.04 mPa·s
293.23 K, 5070 kPa | – | 35.72 mPa·s
293.23 K, 10240 kPa | – | 37.39 mPa·s [middle of 4 runs]
293.23 K, 19990 kPa | – | 40.52 mPa·s [middle of 4 runs]
293.23 K, 29910 kPa | – | 43.47 mPa·s and 43.45 mPa·s
293.23 K, 29920 kPa | – | 43.5 mPa·s and 43.6 mPa·s
293.23 K, 40040 kPa | – | 47.04 mPa·s [middle of 5 runs]
293.23 K, 50530 kPa | – | 51.14 mPa·s [middle of 4 runs]
293.23 K, 69900 kPa | – | 58.55 mPa·s
293.23 K, 69990 kPa | – | 58.38 mPa·s
293.23 K, 70070 kPa | – | 58.52 mPa·s
303.15 K, 100 kPa | 1108.8 kg/m3 | –
303.15 K, 680 kPa | 1109 kg/m3 | –
303.15 K, 1130 kPa | 1109.2 kg/m3 | –
303.15 K, 1580 kPa | 1109.4 kg/m3 | –
303.15 K, 2120 kPa | 1109.7 kg/m3 | –
303.15 K, 3030 kPa | 1110.1 kg/m3 | –
303.15 K, 5040 kPa | 1111 kg/m3 | –
303.15 K, 6950 kPa | 1111.9 kg/m3 | –
303.15 K, 9960 kPa | 1113.2 kg/m3 | –
303.15 K, 14840 kPa | 1115.4 kg/m3 | –
303.15 K, 19740 kPa | 1117.5 kg/m3 | –
303.15 K, 24680 kPa | 1119.6 kg/m3 | –
303.15 K, 29610 kPa | 1121.6 kg/m3 | –
303.15 K, 34520 kPa | 1123.6 kg/m3 | –
303.15 K, 39380 kPa | 1125.6 kg/m3 | –
303.15 K, 44350 kPa | 1127.5 kg/m3 | –
303.15 K, 49140 kPa | 1129.4 kg/m3 | –
303.15 K, 54090 kPa | 1131.3 kg/m3 | –
303.15 K, 58990 kPa | 1133.1 kg/m3 | –
303.15 K, 63850 kPa | 1134.9 kg/m3 | –
303.15 K, 68760 kPa | 1136.6 kg/m3 | –
303.27 K, 180 kPa | – | 21.44 mPa·s [middle of 5 runs]
303.27 K, 190 kPa | – | 21.49 mPa·s
303.27 K, 1070 kPa | – | 21.42 mPa·s
303.27 K, 1080 kPa | – | 21.42 mPa·s and 21.5 mPa·s and 21.48 mPa·s
303.27 K, 2100 kPa | – | 21.72 mPa·s and 21.69 mPa·s
303.27 K, 5160 kPa | – | 22.14 mPa·s and 22.35 mPa·s and 22.13 mPa·s
303.27 K, 5170 kPa | – | 22.08 mPa·s
303.27 K, 10180 kPa | – | 22.97 mPa·s
303.27 K, 10190 kPa | – | 23.05 mPa·s and 23.2 mPa·s and 23 mPa·s
303.27 K, 20040 kPa | – | 24.7 mPa·s and 25.05 mPa·s and 24.87 mPa·s
303.27 K, 30920 kPa | – | 26.77 mPa·s [middle of 5 runs]
303.27 K, 40100 kPa | – | 28.49 mPa·s [middle of 5 runs]
303.27 K, 50040 kPa | – | 30.4 mPa·s
303.27 K, 50050 kPa | – | 30.52 mPa·s and 30.43 mPa·s
303.27 K, 50060 kPa | – | 30.59 mPa·s
303.27 K, 50070 kPa | – | 30.49 mPa·s
303.27 K, 68860 kPa | – | 34.35 mPa·s
303.27 K, 68920 kPa | – | 34.55 mPa·s
303.27 K, 69030 kPa | – | 34.74 mPa·s
303.27 K, 69090 kPa | – | 34.81 mPa·s
313.15 K, 100 kPa | 1101.7 kg/m3 and 1101.6 kg/m3 | –
313.15 K, 640 kPa | 1101.8 kg/m3 | –
313.15 K, 1140 kPa | 1102.1 kg/m3 | –
313.15 K, 1640 kPa | 1102.3 kg/m3 | –
313.15 K, 2100 kPa | 1102.5 kg/m3 | –
313.15 K, 3090 kPa | 1103 kg/m3 | –
313.15 K, 5130 kPa | 1103.9 kg/m3 | –
313.15 K, 6960 kPa | 1104.8 kg/m3 | –
313.15 K, 9960 kPa | 1106.1 kg/m3 | –
313.15 K, 14940 kPa | 1108.4 kg/m3 | –
313.15 K, 19750 kPa | 1110.6 kg/m3 | –
313.15 K, 24640 kPa | 1112.7 kg/m3 | –
313.15 K, 29640 kPa | 1114.8 kg/m3 | –
313.15 K, 34510 kPa | 1116.9 kg/m3 | –
313.15 K, 39340 kPa | 1118.9 kg/m3 | –
313.15 K, 44340 kPa | 1120.9 kg/m3 | –
313.15 K, 49190 kPa | 1123.2 kg/m3 | –
313.15 K, 54020 kPa | 1124.7 kg/m3 | –
313.15 K, 59030 kPa | 1126.7 kg/m3 | –
313.15 K, 63880 kPa | 1128.5 kg/m3 | –
313.15 K, 68820 kPa | 1130.3 kg/m3 | –
313.38 K, 200 kPa | – | 14.25 mPa·s and 14.24 mPa·s and 14.26 mPa·s
313.38 K, 210 kPa | – | 14.23 mPa·s [middle of 5 runs]
313.38 K, 1170 kPa | – | 14.28 mPa·s and 14.27 mPa·s
313.38 K, 1180 kPa | – | 14.33 mPa·s
313.38 K, 2300 kPa | – | 14.28 mPa·s
313.38 K, 2310 kPa | – | 14.5 mPa·s
313.38 K, 2320 kPa | – | 14.38 mPa·s
313.38 K, 5060 kPa | – | 14.69 mPa·s and 14.72 mPa·s
313.38 K, 5070 kPa | – | 14.63 mPa·s and 14.65 mPa·s
313.38 K, 5080 kPa | – | 14.64 mPa·s
313.38 K, 10280 kPa | – | 15.26 mPa·s
313.38 K, 10290 kPa | – | 15.13 mPa·s
313.38 K, 10300 kPa | – | 15.2 mPa·s
313.38 K, 20100 kPa | – | 16.33 mPa·s
313.38 K, 20110 kPa | – | 16.16 mPa·s and 16.17 mPa·s
313.38 K, 30110 kPa | – | 17.27 mPa·s and 17.34 mPa·s and 17.33 mPa·s
313.38 K, 40110 kPa | – | 18.5 mPa·s [middle of 4 runs]
313.38 K, 50110 kPa | – | 19.66 mPa·s and 19.68 mPa·s
313.38 K, 50120 kPa | – | 19.64 mPa·s
313.38 K, 50130 kPa | – | 19.61 mPa·s
313.38 K, 69490 kPa | – | 22.11 mPa·s
313.38 K, 69530 kPa | – | 22.04 mPa·s
313.38 K, 69580 kPa | – | 21.98 mPa·s
323.15 K, 100 kPa | 1094.3 kg/m3 | –
323.15 K, 680 kPa | 1094.6 kg/m3 | –
323.15 K, 1130 kPa | 1094.8 kg/m3 | –
323.15 K, 1570 kPa | 1095 kg/m3 | –
323.15 K, 2100 kPa | 1095.2 kg/m3 | –
323.15 K, 3080 kPa | 1095.7 kg/m3 | –
323.15 K, 5080 kPa | 1096.7 kg/m3 | –
323.15 K, 7000 kPa | 1097.6 kg/m3 | –
323.15 K, 9950 kPa | 1099 kg/m3 | –
323.15 K, 14890 kPa | 1101.4 kg/m3 | –
